Test results taken from US20080038349A1, “Peptide-Pna Chimera Targeting Inducible Nitric Oxide Synthetase” (priority 2004, published 2008).
{Gly} = glycine residue at the PNA end written 3'; {Lys} = lysine residue at the PNA end written 5'

Experiments:
cells in culture = settings: cited from earlier work
Multiple Sclerosis Model = assay: Multiple sclerosis model (MOG 35-55 inoculated mice); assay type: in vivo; settings: 10 mg/kg for 10 consecutive days
Experimental: Mice (female, Cpb 57B1/6; Harlan) were inoculated with ecephalitogenic peptide (MOG 35-55; synthesized at the Hebrew university) emulsified with CFA and pertussis toxin (Sigma) and in the same time were treated with CH(K)6HC-O-5′CTTTCTCCTTTTCC3′-O-HAIYPRH (KBP-11; 10 mg/kg; n=3) or with vehicle solution (control group; n=4) for 10 consecutive days, starting a day after the inoculation of MOG.
At the end the experiment (day 30) animals were scarified and brain tissue were send to histological (H&E analysis) and immunohistochemical (iNOS expression) analysis.

[1] = tested on: Sense 5′-3′: GAA AGA GGA AAA GG; assay: Hybridization experiments (Tm from UV melting curves); assay type: binding; settings: for Tm (temperature of melting, hybridization): vs sense DNA, duplex 5 μM, 10 mM phosphate buffer, 100 mM NaCl, 0.1 mM EDTA, pH=7
Experimental: The DNA sequences used in the hybridization experiments were purchased from (Sigma; USA). A PNA sequence was purchased from Bio-Synthesis Inc. (Lewisville, USA). All hybrid samples reported were first incubated at 90° C. for 5 minutes, then slowly cooled at room temperature. The Duplex concentration of the various samples was 5 μM. All hybridization experiments were carried out in a 10 mM phosphate buffer, 100 mM NaCl, 0.1 mM EDTA, pH=7. Temperature was monitored by an internal thermocouple, at an accuracy of ±0.3° C. Melting curves were recorded by heating the samples (1° C./min) with a 2-min. hold time by UV signal at 260 nm. Melting temperatures were taken as the maximum of the first derivative of the melting curves. UV absorbance measurements were performed on a Varian Cart 5E UV-VIS-NIR spectrophotometer equipped with a Cary temperature controller, in 1-cm quartz cells.
The modifications on the PNA chain although improving bioavailability can diminish activity (hybridization). To examine the effect of modifications on activity properties an experiment was conducted to examine the hybridization properties (determined by changes in temperature of melting or Tm) KBP-10 sequence. Tm value (39.5° C.) was almost the same as predicted calculated value based on sequence (40° C.).

macrophags iNOS = settings: in vitro, macrophages; cited from earlier work
[2] = starting a day after MOG inoculation, n=3

CHK6HC
Transfection of cells in culture (cells in culture): improved transfection of cells in culture

CH(K)6HC-O-5′CTTTCTCCTTTTCC3′-O-HAIYPRH [KBP-11]
Incidence (Multiple Sclerosis Model; [2]): 1/3
Mean disease duration (Multiple Sclerosis Model; [2]): 6 days
Mean Score (Disease burden) (Multiple Sclerosis Model; clinical score 0-6): 0.4 ± 0.16
Effect of peptide modification on hybridization properties ([1]; modified PNA vs. ODN, FIG. 1): did not affect the hybridization properties
Tm (temperature of melting, hybridization) [1]: 39.00 °C

3′-Gly-CTTTCTCCTTTTCC-Lys 5′ (all peptide nucleic acid (PNA), 5' {Lys}, 3' {Gly}) [PNA targeting macrophage iNOS]
iNOS expression (macrophags iNOS): specifically diminished its expression

CTTTCTCCTTTTCC (chemistry not given here) [Oligodeoxynucleotide, reference compound]
Tm (temperature of melting, hybridization) [1]: 46.96 °C
